This is an account of results in US10231956B2, “3-(1H-pyrrolo[3,2-C]pyridin-2-YL)-1 H-pyrazolo[4,3-B]pyridines and therapeutic uses thereof” (Samumed, LLC, priority 2015, dated 2019).

Format in all cases: cell-based
One test concerns IL-6. As to the kind of experiment: IL-6 inhibition in LPS-stimulated THP-1 cells (HTRF). The following applies: Homo sapiens; for EC50: LPS 500 ng/mL, 22 hours, IL6 HTRF. A general note: TR-FRET usually uses a lanthanide donor and a delayed reading to cut background.
The test system of test [1] is primary human fibroblasts derived from IPF patients (LL29 cells). The test can be described thus: Inhibition of fibrotic process: αSMA staining in TGF-β1 treated LL29 fibroblasts. To be noted: Fibroblast; for EC50: 96 h, TGF-β1 20 ng/mL, 4 days, % cells positive for αSMA; for inhibition at 10 µM: given for EC50 >10 μM, TGF-β1, αSMA, read-out: percent inhibition at 10 μM. The essentials:
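LL29 cells at 1,500/well in F12 with 1% FBS, compounds at 1 μM–1.87 nM (11-point, 0.1% DMSO), TGF-β1 20 ng/mL added 1 h later, 4 days at 37 °C. SYTOX-positive cells excluded; % αSMA-positive cells by immunofluorescence imaging, normalized to TGF-β1/DMSO wells, triplicates fitted for EC50; above 10 μM, % inhibition at 10 μM given.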

The subject of the next test is SW480 colon cancer cells. As to the kind of experiment: Cell viability assay (CellTiter-Blue) in SW480 colon cancer cells. To be noted: Homo sapiens; for EC50: 96 h, four days, CellTiter-Blue; for inhibition at 10 µM: given for EC50 >10 μM, read-out: percent inhibition at 10 μM. An outline of the steps:
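SW480 colon cancer cells (~2×10^3/well) exposed to 8-point 1:3 dilutions from 10 μM to 0.0045 μM for four days at 37 °C/5% CO2. Viability read by resazurin (CellTiter-Blue) fluorescence after ~3 h, Ex 560/Em 590 nm. EC50 from non-linear regression; percent inhibition at 10 μM given when EC50 >10 μM.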
Background: Alamar Blue is a resazurin reagent that responds to reducing activity.

One may read the EC50 as the midpoint of the concentration-response curve. A low value points to higher potency in that assay. Usually inhibition stands for the relative decrease from the control value, in per cent. As for `CN(C)c1cncc(-c2ccc3[nH]nc(-c4cc5c(-c6cccc(F)c6)nccc5[nH]4)c3n2)c1` [Compound 7, 5-(3-(4-(3-Fluorophenyl)-1H-pyrrolo[3,2-c]pyridin-2-yl)-1H-pyrazolo[4,3-b]pyridin-5-yl)-N,N-dimethylpyridin-3-amine], the EC50 in the test with IL-6 is 104 nM; in test [1], > 10000 nM; in the test on SW480 colon cancer cells, 483 nM. Moreover, the inhibition at 10 µM in test [1] is 0%.
Take `Cc1ccncc1-c1ccc2[nH]nc(-c3cc4c(-c5ccc(F)cc5)nccc4[nH]3)c2n1` [Compound 33, 3-(4-(4-Fluorophenyl)-1H-pyrrolo[3,2-c]pyridin-2-yl)-5-(4-methylpyridin-3-yl)-1H-pyrazolo[4,3-b]pyridine]: the EC50 is > 10000 nM in the test on IL-6, 3300 nM in test [1] and 4470 nM with SW480 colon cancer cells. Further, in the test with IL-6 (given for EC50 >10 μM, LPS, IL6, 10 μM, read-out: percent inhibition at 10 μM), the inhibition at 10 µM worked out at 31.3%.
In the case of `CN(C)Cc1cncc(-c2ccc3[nH]nc(-c4cc5c(N6CCCCC6)nccc5[nH]4)c3n2)c1` [Compound 181, N,N-Dimethyl-1-(5-(3-(4-(piperidin-1l-yl)-1H-pyrrolo[3,2-c]pyridin-2-yl)-1H-pyrazolo[4,3-b]pyridin-5-yl)pyridin-3-yl)methanamine], the concentration for a half-maximal effect (EC50) in the test with IL-6 worked out at 2210 nM; in test [1], 1590 nM; in the test on SW480 colon cancer cells it was 2700 nM.
Consider `FC1(F)CCN(Cc2cncc(-c3ccc4[nH]nc(-c5cc6cnccc6[nH]5)c4n3)c2)C1` [Compound 278, 5-(5-((3,3-Difluoropyrrolidin-1-yl)methyl)pyridin-3-yl)-3-(1H-pyrrolo[3,2-c]pyridin-2-yl)-1H-pyrazolo[4,3-b]pyridine], for which the EC50 in the test with IL-6 is 92 nM; in test [1] it was 68 nM; in the test on SW480 colon cancer cells, 88 nM.
For `Cc1ccncc1-c1ccc2[nH]nc(-c3cc4c(N5CCN(C)CC5)nccc4[nH]3)c2n1` [Compound 229, 3-(4-(4-Methylpiperazin-1l-yl)-1H-pyrrolo[3,2-c]pyridin-2-yl)-5-(4-methylpyridin-3-yl)-1H-pyrazolo[4,3-b]pyridine], the EC50 was 108 nM in the test with IL-6, 949 nM in test [1] and 824 nM in the test with SW480 colon cancer cells.
In the case of `c1cc2[nH]c(-c3n[nH]c4ccc(-c5cncc(OCCN6CCCC6)c5)nc34)cc2cn1` [Compound 658, 5-(5-(2-(Pyrrolidin-1-yl)ethoxy)pyridin-3-yl)-3-(1H-pyrrolo[3,2-c]pyridin-2-yl)-1H-pyrazolo[4,3-b]pyridine], the EC50 in the test on IL-6 was determined as 1070 nM; in test [1], 4750 nM; with SW480 colon cancer cells, 2070 nM.
Consider `CC(C)CC(=O)Nc1cncc(-c2ccc3[nH]nc(-c4cc5c(-c6cc(F)cc(CNS(C)(=O)=O)c6)nccc5[nH]4)c3n2)c1` [Compound 478, N-(5-(3-(4-(3-Fluoro-5-(methylsulfonamidomethyl)phenyl)-1H-pyrrolo[3,2-c]pyridin-2-yl)-1H-pyrazolo[4,3-b]pyridin-5-yl)pyridin-3-yl)-3-methylbutanamide], for which the EC50 in the test on IL-6 was 108 nM; in test [1], 5700 nM; in the test with SW480 colon cancer cells it was 921 nM.
With `Fc1cccc(-c2nccc3[nH]c(-c4n[nH]c5ccc(-c6cccnc6)nc45)cc23)c1` [Compound 4, 3-(4-(3-Fluorophenyl)-1H-pyrrolo[3,2-c]pyridin-2-yl)-5-(pyridin-3-yl)-1H-pyrazolo[4,3-b]pyridine], the EC50 is 51 nM in the test with IL-6, 427 nM in test [1] and > 10000 nM in the test with SW480 colon cancer cells. The inhibition at 10 µM in the test on SW480 colon cancer cells worked out at 25%.
Turning to `Fc1ccccc1-c1nccc2[nH]c(-c3n[nH]c4ccc(-c5cncnc5)nc34)cc12` [Compound 83, 3-(4-(2-Fluorophenyl)-1H-pyrrolo[3,2-c]pyridin-2-yl)-5-(pyrimidin-5-yl)-1H-pyrazolo[4,3-b]pyridine], the EC50 is 61 nM in the test on IL-6, > 10000 nM in test [1] and > 10000 nM with SW480 colon cancer cells. Further, the figures for the inhibition at 10 µM (in test [1]; with SW480 colon cancer cells) were 0% and 27.9%, respectively.
Regarding `FC1(F)CCN(Cc2cncc(-c3ccc4[nH]nc(-c5cc6c(N7CCCCC7)nccc6[nH]5)c4n3)c2)C1` [Compound 194, 5-(5-((3,3-Difluoropyrrolidin-1-yl)methyl)pyridin-3-yl)-3-(4-(piperidin-1-yl)-1H-pyrrolo[3,2-c]pyridin-2-yl)-1H-pyrazolo[4,3-b]pyridine], the results for the EC50 (with IL-6; in test [1]; in the test with SW480 colon cancer cells) were 186 nM, 1030 nM and 1900 nM, respectively.
For the compound `Fc1ccc(-c2nccc3[nH]c(-c4n[nH]c5ccc(-c6cncc(CN7CCC(F)(F)C7)c6)nc45)cc23)cc1` [Compound 54, 5-(5-((3,3-Difluoropyrrolidin-1-yl)methyl)pyridin-3-yl)-3-(4-(4-fluorophenyl)-1H-pyrrolo[3,2-c]pyridin-2-yl)-1H-pyrazolo[4,3-b]pyridine], the EC50 worked out at 121 nM with IL-6, 521 nM in test [1] and 516 nM with SW480 colon cancer cells.
For `c1cc2[nH]c(-c3n[nH]c4ccc(-c5cncnc5)nc34)cc2cn1` [Compound 279, 5-(Pyrimidin-5-yl)-3-(1H-pyrrolo[3,2-c]pyridin-2-yl)-1H-pyrazolo[4,3-b]pyridine] the same measures were 1110 nM, 2570 nM and 1470 nM.
Regarding `CN(C)Cc1cncc(-c2ccc3[nH]nc(-c4cc5c(-c6ccccc6F)nccc5[nH]4)c3n2)c1` [Compound 69, 1-(5-(3-(4-(2-Fluorophenyl)-1H-pyrrolo[3,2-c]pyridin-2-yl)-1H-pyrazolo [4,3-b]pyridin-5-yl)pyridin-3-yl)-N,N-dimethylmethanamine], the EC50 with IL-6 was 1150 nM; in test [1], 626 nM; with SW480 colon cancer cells, 596 nM.
Taken in the same sequence, the figures for `CC(C)CC(=O)Nc1cncc(-c2ccc3[nH]nc(-c4cc5c(-c6ccccc6F)nccc5[nH]4)c3n2)c1` [Compound 58, N-(5-(3-(4-(2-Fluorophenyl)-1H-pyrrolo[3,2-c]pyridin-2-yl)-1H-pyrazolo [4,3-b]pyridin-5-yl)pyridin-3-yl)-3-methylbutanamide] were 74 nM, 370 nM and 370 nM.
